A melting point compilation (Tetko et al.; mined from patent text by program, amines drawn as free bases though some values may be those of a salt)

| SMILES | melting point [°C] |
| --- | --- |
| CC1=C(C(=O)OC(C)C)C(c2cccc([N+](=O)[O-])c2)C(C(=O)O)=NN1 (stereo unspecified) | 195 |
| CC1N=C(c2ccccc2F)c2cc(C(C)N)ccc2N(C)C1=O (stereo unspecified) | 48 to 50 |
| Cc1nc2cccc(NC(=O)CCl)c2c(=O)n1C1CCC(=O)NC1=O (stereo unspecified) | 275 to 277 |
| CN(C)CCOc1ccc(N2C(=O)C=C3CCCCC32)cc1 (stereo unspecified) | 90 |
| COc1ccc(C2(c3ccc(OC)cc3)CCN(C[C@H]3CN(C)[C@@H]4Cc5c(Br)[nH]c6cccc(c56)[C@@]4(OC)C3)CC2)cc1 | 167 to 172 |
| Cc1c(C(F)(F)C(F)(F)C(F)(F)F)ncn1-c1ncc(C(F)(F)F)cc1Cl | 62.5 |
| CC(C)CCSc1cc(C(=O)O)cc(S(N)(=O)=O)c1-c1ccccc1 | 70 to 74 |
| Cc1cc(Cl)ccc1N1CCCNC1=S | 266 to 268 |
| Cc1ccc2c(c1)C=C(N1CCN(CCN3CCOC3=O)CC1)c1cc(Cl)ccc1S2 | 194 to 196 |
| CC(C)(C)COC(=O)Cc1cccc2c(=O)cc(C3=CCCCC3)oc12 | 138 to 139 |
| Cn1c(C(F)(F)F)cc(=O)n(-c2cc(OC3COC(=O)O3)c(Cl)cc2F)c1=O (stereo unspecified) | 165 to 167 |
| O=C(O)C1=CC(CF)(CF)Oc2ccc(Cl)cc21 | 151 to 152 |
| Cc1c(OCCBr)ccc2c(=O)cc(N3CCOCC3)oc12 | 210 to 212 |
| O=C1c2ccc(Nc3ccc(F)cc3F)cc2CCc2c(OC[C@H](O)CO)cccc21 | 125 |
| Cc1ccc(NC(=O)c2cccc(N3CCOCC3)c2)cc1[N+](=O)[O-] | 149 to 150 |
| CCOC(=O)c1ccc(OCCCCC2CC3=C(C2)C(=O)C(OC)=C(OC)C3=O)cc1 | 97 to 99 |
| Cc1ccc(S(=O)(=O)N(C)c2cc(C(C)(C)C)c(O)c(C(C)(C)C)c2)cc1 | 130 to 142 |
| CN(C)CCCOc1ccc(C[C@H](NC(=O)[C@@H]2CCCN2S(=O)(=O)c2ccc(Cl)s2)C(=O)O)cc1 | > 200 |
| Cc1cccc(-c2[nH]nnc2-c2ccc3c(c2)N(CCN2CCOCC2)C(=O)CO3)n1 | 150 |
| O=C(c1cccs1)C(O)c1ccc(Cl)c(Cl)c1 (stereo unspecified) | 108 to 109 |
| Cc1ccc2c(c1)C(=O)N(C)Cc1c(C(N)=NO)ncn1-2 | 227 to 229 |

| SMILES | melting point [°C] |
| --- | --- |
| CCC1(CCI)C(=O)N2CC=CC(C(=O)OC)N2C1=O (stereo unspecified) | 95 to 97 |
| NC(=NO)C1CCN(c2ccc3c(NC(=O)CC4CCCCC4)c(Cl)ccc3n2)CC1 | 246 to 247 |
| O=C(c1c(F)cccc1F)N1COCN(c2ccc(SC(F)(F)C(F)(F)C(F)(F)F)cc2F)C1=O | 44 to 46 |
| COc1ccc(/C(=C\C=C\C2CC2)C(=O)O)cc1 | 158 to 160 |
| CCN(CC)C(=O)n1cnc(S(=O)(=O)CC2CCCCC2)n1 | 40 to 46 |
| CC(=O)NC1CCN(Cc2cnc3cc(NC(=O)c4ccc(-c5ccc(F)cc5)cc4)ccc3c2)C1 (stereo unspecified) | 250 to 253 |
| CCC(=O)NCC[C@@H]1CCc2cc(Br)c3c(c21)CCO3 | 129 to 131 |
| Cc1ccc(-c2ccc3c(c2)C=C(C(=O)Nc2ccc(CNC(CO)CO)cc2)CC3)cc1 | 189 to 193 |
| CC(=O)Nc1nc(CCCCl)cs1 | 110 to 112 |
| COC(=O)c1cc(I)c(F)c(I)c1Cl | 155 |
| COC(=O)C(CO)N(Cc1ccccc1[N+](=O)[O-])S(=O)(=O)c1ccc(OC)cc1 (stereo unspecified) | 127 to 129 |
| CN1C(=S)N(c2ccc(C#N)c(C(F)(F)F)c2)C(=S)C1(C)C | 211 to 212 |
| Brc1cccc2nc(N3CCNCC3)ccc12 | 94 to 96 |
| COCOc1c(OC)cc(C=O)cc1OC | 52 to 53 |
| O=[N+]([O-])c1cnn(-c2c(Cl)cc(C(F)(F)F)cc2Cl)c1Cl | 80 to 84 |
| COC1NC(=O)C(OC)(OC)C1Cl (stereo unspecified) | 141 to 142 |
| CN(C)c1ccc(-c2cnn(-c3cccc(C(=O)O)c3)c2)cc1 | 224 to 225 |
| CCC1(CCSC(C)=O)C(=O)N2CCCC(C(=O)O)N2C1=O (stereo unspecified) | 110 to 111 |
| CC(=C(c1ccccc1)c1ccccc1)P(C1CCCCC1)C1CCCCC1 | 128 to 130 |
| COc1ccc(N2CCN(c3c(C)c(C)c4c(c3C)C(c3ccc(F)cc3)C(C)(C)O4)CC2)cc1 (stereo unspecified) | 139 to 141 |

Second part, the compound after the results:

| melting point [°C] | SMILES |
| --- | --- |
| 206 to 207 | Nc1nc(-c2ccco2)c(C(=O)c2ccccn2)s1 |
| 207 to 209 | CCn1ncc2c3noc(-c4cccc(Cl)c4)c3cnc21 |
| 165 to 166 | Cc1cnc2n(c1=O)C(C)CCC2=NNc1ccccc1 (stereo unspecified) |
| 50 to 51 | O=C(c1ccccc1)C(F)c1ccccc1 (stereo unspecified) |
| 179 to 182 | CC(=O)Nc1ccc(OCc2nc3ccccc3s2)cc1C |
| 136 to 138 | O=C(c1ccc(O)cc1)c1ccc(OCCBr)cc1 |
| 105 | CCOC(=O)c1cc(OCc2ccccc2)c2ccc(Br)cc2c1 |
| 183 to 187 | O=C(O)COc1ccc2c(-c3cccc(F)c3F)noc2c1Cl |
| 93 to 95 | Cc1c(C)c2c(c(C)c1NCc1ccc(F)cc1)C(c1ccccc1)C(C)(C)O2 (stereo unspecified) |
| 230 to 232 | COC(=O)Nc1cc(Oc2ccc3c(C(=O)Nc4cccc(C(F)(F)F)c4)cccc3c2)ccn1 |
| 138 | COc1cccc(C(=O)NN=C2CCc3ccccc3C2)c1C |
| 227 to 228 | COc1cccc(CN2CCC(n3c(C)c(-c4ccccc4)[nH]c3=O)CC2)c1 |
| 86 | CCC(C)N(C)C(=O)c1cc(-c2ccccc2F)c2ccccc2n1 (stereo unspecified) |
| 116 to 118 | OC(CN1CCN(c2ccccn2)CC1)(Cn1cncn1)c1ccc(Cl)cc1Cl (stereo unspecified) |
| 156 to 157 | COC(=O)C(Cc1ccccc1)NC(=O)c1cc2cc(Cl)ccc2[nH]1 (stereo unspecified) |
| 179 to 181 | CCOC(=O)C(=O)CC(=O)c1cn(Cc2ccc(O)cc2)c2ccccc2c1=O |
| 173 | COc1cc(C(O)CN2CCN(C(c3ccccc3)c3ccccc3)CC2)cc(OC)c1OC (stereo unspecified) |
| 148 to 150 | Cc1nc2c(OCc3c(Cl)ccc(N(C)C(=O)CNC(=O)CN4C(=O)c5ccccc5C4=O)c3Cl)cccn2c1Br |
| 178 to 179 | COc1ccc(CNC(=O)c2ccc(Cl)cc2OCC(=O)O)cc1 |
| 165 to 169 | NNc1ccc2c(=O)n(Cc3ccccc3)cnc2c1 |
| 227 to 229 | CCOC(=O)c1ccc(COCc2csc3nc(C(=O)NCc4cccc(CS(C)(=O)=O)c4)[nH]c(=O)c23)cc1 |
| 157 to 158 | CCOc1nn2c(-c3ccccc3Br)nnc2c2ccccc12 |
| 136 to 138 | CCOC(=O)C=Cc1ccc(NC(=O)Oc2ccccc2)cc1 |
| 200 | COc1ccc2c(c1)CCc1cc(Nc3ccccc3N)ccc1C2=O |
| 150 to 152 | CCC(=O)n1ccc(-c2ccc(C(=O)N3Cc4cccn4Cc4ccccc43)cc2)n1 |
| 126 to 128 | O=c1nc(-c2cccc(CSCc3ccccc3)n2)sc2ccccc12 |
| 185 to 186 | COc1ccc(-n2nc(C(F)F)cc2-c2ccc(S(C)(=O)=O)cc2)cc1F |
| 218 to 220 | O=C1NC(=O)c2c1c(-c1ccccc1Cl)cc1c2cc(CO)n1CCCBr |
| 85 to 86 | O=CC1CCN1C(c1ccccc1)c1ccccc1 (stereo unspecified) |
| 142 to 143 | Cc1nc(N2CCN(CC3CC3)C2=O)sc1C(=O)NCc1ccccc1 |
